Each structure is given as a SMILES string.

Experiment [1] relates to ENR+CD organoids. Kind of experiment: Primary screen: ATP (CellTiter-Glo 3D, CTG) cell number/viability, 2.5-D 384-well ENR+CD organoids.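 Also: compounds given at plating and again on day 3 over a 6-day differentiation from ENR+CV stem-cell-enriched precursors, ATP measured on day 6, plate median as control.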 On the technique in general: In ATP-based viability assays light output follows the ATP content of the culture.
In experiment [2] the test system is ENR+CD organoids (ISC to Paneth cell differentiation). The experiment is described as follows: Primary screen: CCh-stimulated lysozyme secretion LYZ.S, 2.5-D 384-well ENR+CD organoid differentiation. The class given is cell-based, mouse. Particulars: primary screen. The source says:
(§1) High-throughput screening.

The test system is the same in experiment [3]. The experiment is described as follows: Primary screen: basal (non-stimulated) lysozyme secretion LYZ.NS, 2.5-D 384-well ENR+CD organoid differentiation. It counts as cell-based, mouse.
Excerpt: as §1

Where [4] appears, read: primary screen, dose 0.08 uM, standard z score.
[5] abbreviates: primary screen, dose 0.40 uM, standard z score.
Where [6] appears, read: primary screen, dose 2.00 uM, standard z score.
Where [7] appears, read: primary screen, dose 10.00 uM, standard z score.
Where [8] appears, read: primary screen; dose 0.08 uM; FC vs plate median.
Setting [9] is: primary screen; dose 0.40 uM; FC vs plate median.
The mark [10] stands for this setting: primary screen; dose 2.00 uM; FC vs plate median.
[11] abbreviates: primary screen; dose 10.00 uM; FC vs plate median.
Setting [12] is: primary screen, standard z score, dose 0.08 uM.
[13] abbreviates: primary screen, standard z score, dose 0.40 uM.
The mark [14] stands for this setting: primary screen, standard z score, dose 2.00 uM.
The mark [15] stands for this setting: primary screen, standard z score, dose 10.00 uM.

`C1=N/C2=N/c3ccc(OCCN4CCCC4)c(c3)COC/C=C/COCc3cccc(c3)C(=C1)N2` [Pacritinib (SB1518)]: the Z.CTG is recorded as −0.014 in experiment [1] (setting [4]), 0.236 in experiment [1] (setting [5]), −0.560 in experiment [1] (setting [6]) and −3.047 in experiment [1] (setting [7]). Further, the Dose.FC.CTG in experiment [1] (setting [8]) was −0.006 log2 fold change; in experiment [1] (setting [9]), 0.099 log2 fold change; in experiment [1] (setting [10]), −0.235 log2 fold change; in experiment [1] (setting [11]), −1.276 log2 fold change. Further, the Dose.FC.LYZ.S in experiment [2] (dose 0.08 uM, FC vs plate median) was 0.066 log2 fold change; in experiment [2] (dose 0.40 uM, FC vs plate median), −0.032 log2 fold change; in experiment [2] (dose 2.00 uM, FC vs plate median), −0.304 log2 fold change; in experiment [2] (dose 10.00 uM, FC vs plate median) it was −0.419 log2 fold change. The Z.LYZ.NS in experiment [3] (setting [4]) is reported as 0.795; in experiment [3] (setting [5]) it was −0.299; in experiment [3] (setting [6]), −1.908; in experiment [3] (setting [7]), −2.391. The Dose.FC.LYZ.NS is 0.091 log2 fold change in experiment [3] (setting [8]), −0.034 log2 fold change in experiment [3] (setting [9]), −0.219 log2 fold change in experiment [3] (setting [10]) and −0.275 log2 fold change in experiment [3] (setting [11]).
`Cc1cccc(-c2nn3c(c2-c2ccnc4ccc(C(N)=O)cc24)CCC3)n1` [LY2157299]: the “Dose.FC.CTG (log2 fold change)” value is 0.091 in experiment [1] (primary screen, dose 0.08 uM); 0.137 in experiment [1] (primary screen, dose 0.40 uM); 0.017 in experiment [1] (primary screen, dose 2.00 uM); 0.095 in experiment [1] (primary screen, dose 10.00 uM). Moreover, the “Z.CTG (standard z score)” value in experiment [1] (primary screen, dose 0.08 uM) worked out at 0.218; in experiment [1] (primary screen, dose 0.40 uM) it was 0.328; in experiment [1] (primary screen, dose 2.00 uM) it was 0.041; in experiment [1] (primary screen, dose 10.00 uM) it was 0.226. Also, the “Dose.FC.LYZ.S (log2 fold change)” value amounted to 0.187 in experiment [2] (dose 0.08 uM), 0.199 in experiment [2] (dose 0.40 uM), 0.113 in experiment [2] (dose 2.00 uM) and 0.223 in experiment [2] (dose 10.00 uM). For the same compound, the “Dose.FC.LYZ.NS (log2 fold change)” value is on record as 0.227 in experiment [3] (primary screen, dose 0.08 uM); 0.140 in experiment [3] (primary screen, dose 0.40 uM); 0.092 in experiment [3] (primary screen, dose 2.00 uM); 0.162 in experiment [3] (primary screen, dose 10.00 uM). For the same compound, the “Z.LYZ.NS (standard z score)” value is 1.973 in experiment [3] (primary screen, dose 0.08 uM); 1.221 in experiment [3] (primary screen, dose 0.40 uM); 0.799 in experiment [3] (primary screen, dose 2.00 uM); 1.408 in experiment [3] (primary screen, dose 10.00 uM).
`COc1cc(Nc2ncc(F)c(Nc3ccc4c(n3)N(COP(=O)(O)O)C(=O)C(C)(C)O4)n2)cc(OC)c1OC` [Fostamatinib (R788)]: the Dose.FC.CTG was 0.232 log2 fold change in experiment [1] (primary screen, dose 0.08 uM); −0.052 log2 fold change in experiment [1] (primary screen, dose 0.40 uM); −0.231 log2 fold change in experiment [1] (primary screen, dose 2.00 uM); −0.881 log2 fold change in experiment [1] (primary screen, dose 10.00 uM). Further, the Z.CTG in experiment [1] (setting [12]) is reported as 0.554; in experiment [1] (setting [13]) it was −0.123; in experiment [1] (setting [14]), −0.552; in experiment [1] (setting [15]) it was −2.105. Also, the Dose.FC.LYZ.S in experiment [2] (dose 0.08 uM) was 0.235 log2 fold change; in experiment [2] (dose 0.40 uM), 0.156 log2 fold change; in experiment [2] (dose 2.00 uM) it was −0.015 log2 fold change; in experiment [2] (dose 10.00 uM), −0.350 log2 fold change. Besides, the Dose.FC.LYZ.NS is 0.119 log2 fold change in experiment [3] (primary screen, dose 0.08 uM); −0.025 log2 fold change in experiment [3] (primary screen, dose 0.40 uM); −0.099 log2 fold change in experiment [3] (primary screen, dose 2.00 uM); −0.234 log2 fold change in experiment [3] (primary screen, dose 10.00 uM). Further, the Z.LYZ.NS is reported as 1.033 in experiment [3] (setting [12]), −0.217 in experiment [3] (setting [13]), −0.860 in experiment [3] (setting [14]) and −2.036 in experiment [3] (setting [15]).

These data come from patent publication US20220323406A1, “METHODS AND COMPOSITIONS FOR DIFFERENTIATING STEM CELLS” (Massachusetts Institute of Technology, priority 2019, published 2022).
